How the values were obtained:
Format in all cases: functional
Conditions in all cases: time 3-6 day
NCI-H520 [1] = test: Antiproliferative activity against human NCI-H520 cells assessed as inhibition of cell viability at 5 uM incubated for 3 to 6 days by CCK8 assay relative to control
NCI-H1703 [2] = test: Antiproliferative activity against human NCI-H1703 cells assessed as inhibition of cell viability at 5 uM incubated for 3 to 6 days by CCK8 assay relative to control
NCI-H520 [3] = test: Antiproliferative activity against human NCI-H520 cells assessed as inhibition of cell viability at 1 uM incubated for 3 to 6 days by CCK8 assay relative to control
HCC95 [4] = test: Antiproliferative activity against human HCC95 cells assessed as inhibition of cell viability at 5 uM incubated for 3 to 6 days by CCK8 assay relative to control
HCC95 [5] = test: Antiproliferative activity against human HCC95 cells assessed as inhibition of cell viability at 1 uM incubated for 3 to 6 days by CCK8 assay relative to control
NCI-H1703 [6] = test: Antiproliferative activity against human NCI-H1703 cells assessed as inhibition of cell viability at 1 uM incubated for 3 to 6 days by CCK8 assay relative to control

Question: Which inhibition at 5 µM (NCI-H520 [1]) does the source give for `CC1=C(NCCN2CCOCC2)C(=O)c2ccccc2C1=O` here?
Answer: 15.8%

Question: What about the inhibition at 5 µM (NCI-H1703 [2]) of the same compound?
Answer: 64.5%

Question: What about the inhibition at 1 µM (NCI-H520 [3]) of the same compound?
Answer: 5.5%

Question: And the inhibition at 5 µM (HCC95 [4])?
Answer: 7.3%

Question: What about the inhibition at 1 µM (HCC95 [5]) of the same compound?
Answer: 5.8%

Question: And the inhibition at 1 µM (NCI-H1703 [6])?
Answer: 32.1%

Question: Which inhibition at 5 µM (NCI-H520 [1]) does the source give for `O=C1C(N2C[C@H]2Cc2ccccc2)=C(Cl)C(=O)c2ncccc21` here?
Answer: 99.7%

Question: What about the inhibition at 5 µM (NCI-H1703 [2]) of the same compound?
Answer: 100%

Question: What about the inhibition at 1 µM (NCI-H520 [3]) of the same compound?
Answer: 37.6%

Question: And the inhibition at 5 µM (HCC95 [4])?
Answer: 42.5%

Question: What about the inhibition at 1 µM (HCC95 [5]) of the same compound?
Answer: 33.8%

Question: What about the inhibition at 1 µM (NCI-H1703 [6]) of the same compound?
Answer: 37.4%

Question: Which results are given for `O=C1NCCc2cn(CCN3CCOCC3)c3cc(F)cc1c23`?
Answer: inhibition at 5 µM (NCI-H520 [1]): -0.4%; inhibition at 5 µM (NCI-H1703 [2]): 10.1%; inhibition at 1 µM (NCI-H520 [3]): 0.5%; inhibition at 5 µM (HCC95 [4]): 7.5%; inhibition at 1 µM (HCC95 [5]): 0.1%; inhibition at 1 µM (NCI-H1703 [6]): 0.8%

Question: `CC(C)(C)OC(=O)N1CC2(C1)CN(C1=C(Cl)C(=O)c3ncccc3C1=O)C2` was tested. Which inhibition at 5 µM (NCI-H520 [1]) did it give?
Answer: 63.1%

Question: And the inhibition at 5 µM (NCI-H1703 [2])?
Answer: 96.5%

Question: What about the inhibition at 1 µM (NCI-H520 [3]) of the same compound?
Answer: 38.3%

Question: And the inhibition at 5 µM (HCC95 [4])?
Answer: 91.6%

Question: And the inhibition at 1 µM (HCC95 [5])?
Answer: 43.1%

Question: And the inhibition at 1 µM (NCI-H1703 [6])?
Answer: 27.3%

Question: What does the source list for `O=C1C(Nc2ccc(Oc3ccccc3)cc2)=C(Cl)C(=O)c2ncccc21`?
Answer: inhibition at 5 µM (NCI-H520 [1]): 87.8%; inhibition at 5 µM (NCI-H1703 [2]): 97.1%; inhibition at 1 µM (NCI-H520 [3]): 28.6%; inhibition at 5 µM (HCC95 [4]): 43.1%; inhibition at 1 µM (HCC95 [5]): 15%; inhibition at 1 µM (NCI-H1703 [6]): 20.5%

Question: Which results are given for `O=C1C(Cl)=C(N2CCN(C3CC3)CC2)C(=O)c2ncccc21`?
Answer: inhibition at 5 µM (NCI-H520 [1]): 5.6%; inhibition at 5 µM (NCI-H1703 [2]): 30.2%; inhibition at 1 µM (NCI-H520 [3]): 2.1%; inhibition at 5 µM (HCC95 [4]): 10.9%; inhibition at 1 µM (HCC95 [5]): 7.6%; inhibition at 1 µM (NCI-H1703 [6]): 12%

Question: `O=C1C(Cl)=C(N2CCC3(CC2)OCCO3)C(=O)c2ncccc21` was tested. Which inhibition at 5 µM (NCI-H520 [1]) did it give?
Answer: 8.6%

Question: And the inhibition at 5 µM (NCI-H1703 [2])?
Answer: 6%

Question: What about the inhibition at 1 µM (NCI-H520 [3]) of the same compound?
Answer: 6.5%

Question: What about the inhibition at 5 µM (HCC95 [4]) of the same compound?
Answer: 9.1%

Question: And the inhibition at 1 µM (HCC95 [5])?
Answer: 4.6%

Question: What about the inhibition at 1 µM (NCI-H1703 [6]) of the same compound?
Answer: 3.1%

Question: What does the source list for `O=C1C(N2CCC3(CC2)OCCO3)=C(Cl)C(=O)c2ncccc21`?
Answer: inhibition at 5 µM (NCI-H520 [1]): 73.2%; inhibition at 5 µM (NCI-H1703 [2]): 93.4%; inhibition at 1 µM (NCI-H520 [3]): 44.6%; inhibition at 5 µM (HCC95 [4]): 62.7%; inhibition at 1 µM (HCC95 [5]): 4.7%; inhibition at 1 µM (NCI-H1703 [6]): 33.9%

Question: Which results are given for `CC(C)(C)OC(=O)N1CC2(C1)CN(C1=C(Cl)C(=O)c3cccnc3C1=O)C2`?
Answer: inhibition at 5 µM (NCI-H520 [1]): 67.4%; inhibition at 5 µM (NCI-H1703 [2]): 99.1%; inhibition at 1 µM (NCI-H520 [3]): 37.4%; inhibition at 5 µM (HCC95 [4]): 42.6%; inhibition at 1 µM (HCC95 [5]): 9.7%; inhibition at 1 µM (NCI-H1703 [6]): 10.1%

Question: Which results are given for `O=C1C(Cl)=C(NCCCc2ccncc2)C(=O)c2ncccc21`?
Answer: inhibition at 5 µM (NCI-H520 [1]): 80.8%; inhibition at 5 µM (NCI-H1703 [2]): 100%; inhibition at 1 µM (NCI-H520 [3]): 31.2%; inhibition at 5 µM (HCC95 [4]): 20.7%; inhibition at 1 µM (HCC95 [5]): 8.8%; inhibition at 1 µM (NCI-H1703 [6]): 12.2%

Question: What does the source list for `O=C1C(Cl)=C(NCCc2ccncc2)C(=O)c2ncccc21`?
Answer: inhibition at 5 µM (NCI-H520 [1]): 95.5%; inhibition at 5 µM (NCI-H1703 [2]): 100%; inhibition at 1 µM (NCI-H520 [3]): 18%; inhibition at 5 µM (HCC95 [4]): 34.5%; inhibition at 1 µM (HCC95 [5]): 4.25%; inhibition at 1 µM (NCI-H1703 [6]): 9.5%

Question: `O=C1C(N2CCN(C3CC3)CC2)=C(Cl)C(=O)c2ncccc21` was tested. Which inhibition at 5 µM (NCI-H520 [1]) did it give?
Answer: 54.8%

Question: What about the inhibition at 5 µM (NCI-H1703 [2]) of the same compound?
Answer: 64.6%

Question: And the inhibition at 1 µM (NCI-H520 [3])?
Answer: 20.8%

Question: And the inhibition at 5 µM (HCC95 [4])?
Answer: 41.5%

Question: And the inhibition at 1 µM (HCC95 [5])?
Answer: 8.4%

Question: And the inhibition at 1 µM (NCI-H1703 [6])?
Answer: 9%

Question: What does the source list for `CCn1cc(C(=O)NCCN2CCOCC2)c(=O)c2cc3c(cc21)OCO3`?
Answer: inhibition at 5 µM (NCI-H520 [1]): 12.4%; inhibition at 5 µM (NCI-H1703 [2]): 21.2%; inhibition at 1 µM (NCI-H520 [3]): 20.2%; inhibition at 5 µM (HCC95 [4]): 7.8%; inhibition at 1 µM (HCC95 [5]): 22.4%; inhibition at 1 µM (NCI-H1703 [6]): 21.5%

Question: `CCn1cc(C(=O)NCCN2CCOCC2)c(=O)c2ccc(C)nc21` was tested. Which inhibition at 5 µM (NCI-H520 [1]) did it give?
Answer: 22.6%

Question: What about the inhibition at 5 µM (NCI-H1703 [2]) of the same compound?
Answer: 34%

Question: What about the inhibition at 1 µM (NCI-H520 [3]) of the same compound?
Answer: 16.1%

Question: What about the inhibition at 5 µM (HCC95 [4]) of the same compound?
Answer: 3.8%

Question: And the inhibition at 1 µM (HCC95 [5])?
Answer: 11.9%

Question: And the inhibition at 1 µM (NCI-H1703 [6])?
Answer: 19.1%

Question: What does the source list for `CCN(CC)CCNC1=C(Cl)C(=O)c2ncccc2C1=O`?
Answer: inhibition at 5 µM (NCI-H520 [1]): 88.2%; inhibition at 5 µM (NCI-H1703 [2]): 98.2%; inhibition at 1 µM (NCI-H520 [3]): 7.5%; inhibition at 5 µM (HCC95 [4]): 42%; inhibition at 1 µM (HCC95 [5]): 18.7%; inhibition at 1 µM (NCI-H1703 [6]): 18.1%

Question: How did the inhibition at 5 µM (NCI-H520 [1]) turn out when `O=C1C(NCCN2CCOCC2)=C(Cl)C(=O)c2ncccc21` was run?
Answer: 71.2%

Question: What about the inhibition at 5 µM (NCI-H1703 [2]) of the same compound?
Answer: 99.8%

Question: And the inhibition at 1 µM (NCI-H520 [3])?
Answer: 25.9%

Question: What about the inhibition at 5 µM (HCC95 [4]) of the same compound?
Answer: 57.4%

Question: And the inhibition at 1 µM (HCC95 [5])?
Answer: 4.8%

Question: And the inhibition at 1 µM (NCI-H1703 [6])?
Answer: 47.3%

— ChEMBL document CHEMBL6109083, “Design, synthesis, and antitumor activity of NSDs inhibitors targeting lung squamous cell carcinoma” (Eur J Med Chem, 2025)
